The values that follow come from patent publication US6900219B2, “ABCA-1 elevating compounds” (CV Therapeutics, Inc., priority 2002, dated 2005).

The test relates to ABCA-1 gene. In words: compounds tested and found to elevate cellular expression of the ABCA-1 gene (Examples 1-6; test not named). It counts as cell-based. Here is the method: Activity testing is conducted as described in those patents and patent applications referenced above, and in the Examples below, and by methods apparent to one skilled in the art.
Take `O=C(Nc1nc(-c2ccc(Cl)cc2)cs1)c1ccc(-c2ccccc2)cc1` [N-[4-(4-chlorophenyl)(1,3-thiazol-2-yl)](4-phenylphenyl)carboxamide]: the “cellular expression of the ABCA-1 gene” value is recorded as “elevate cellular expression of the ABCA-1 gene”. Next, `O=C(Nc1nc(-c2ccc(Cl)cc2)cs1)c1ccc(C(F)(F)F)cc1F` [N-[4-(4-chlorophenyl)(1,3-thiazol-2-yl)][2-fluoro-4-(trifluoromethyl)phenyl]-carboxamide]: “elevate cellular expression of the ABCA-1 gene”. For `O=C(Nc1nc(-c2ccc(Cl)cc2)cs1)c1cccc(C(F)(F)F)c1` [N-[4-(4-chlorophenyl)(1,3-thiazol-2-yl)][3-(trifluoromethyl)phenyl]carboxamide], the “cellular expression of the ABCA-1 gene” value is listed as “elevate cellular expression of the ABCA-1 gene”. For `O=C(Nc1nc(-c2ccc(Cl)cc2)cs1)c1ccc(OC(F)(F)F)cc1` [N-[4-(4-chlorophenyl)(1,3-thiazol-2-yl)][4-(trifluoromethoxy)phenyl]carboxamide], the “cellular expression of the ABCA-1 gene” value is reported as “elevate cellular expression of the ABCA-1 gene”. For `O=C(Nc1nc(-c2ccc(Cl)cc2)cs1)C1CCCC1` [N-[4-(4-chlorophenyl)(1,3-thiazol-2-yl)]cyclopentylcarboxamide], the “cellular expression of the ABCA-1 gene” value is given as “elevate cellular expression of the ABCA-1 gene”. Next, `Cc1cc(C)c2oc(-c3ccc(NC(=O)c4ccccc4Br)cc3)nc2c1` [N-[4-(5,7-dimethylbenzoxazol-2-yl)phenyl](2-bromophenyl)carboxamide]: “elevate cellular expression of the ABCA-1 gene”; `Cc1ccc2nc(-c3ccc(NC(=O)c4ccccc4C)cc3)sc2c1` [N-[4-(6-methylbenzothiazol-2-yl)phenyl](2-methylphenyl)carboxamide]: “elevate cellular expression of the ABCA-1 gene”; `Cc1ccc2nc(-c3ccc(NC(=O)Cc4cccs4)cc3)sc2c1` [N-[4-(6-methylbenzothiazol-2-yl)phenyl]-2-(2-thienyl)acetamide]: “elevate cellular expression of the ABCA-1 gene”. Take `CCN(CC)CCCC(C)NC(=O)c1cnn(-c2nc(-c3cccc(OC)c3)cs2)c1C` (stereo not drawn) [N-[4-(diethylamino)-1-methylbutyl]{1-[4-(3-methoxyphenyl)(1,3-thiazol-2-yl)]-5-methylpyrazol-4-yl}carboxamide]: the “cellular expression of the ABCA-1 gene” value is reported as “elevate cellular expression of the ABCA-1 gene”.

`CCc1c(C(=O)NC(C)CCCN(CC)CC)cnn1-c1nc(-c2ccc(Br)cc2)cs1` (stereo not drawn) [N-[4-(diethylamino)-1-methylbutyl]{1-[4-(4-bromophenyl)(1,3-thiazol-2-yl)]-5-ethylpyrazol-4-yl}carboxamide]: the “cellular expression of the ABCA-1 gene” value is “elevate cellular expression of the ABCA-1 gene”. In the case of `CC(=O)Nc1ccc(N=Nc2ccccc2)cc1` [N-[4-(phenyldiazenyl)phenyl]acetamide], the “cellular expression of the ABCA-1 gene” value was “elevate cellular expression of the ABCA-1 gene”. Turning to `O=C(Nc1ncc(-c2ccccc2Cl)s1)c1ccco1` [N-[5-(2-chlorophenyl)(1,3-thiazol-2-yl)]-2-furylcarboxamide], the “cellular expression of the ABCA-1 gene” value is on record as “elevate cellular expression of the ABCA-1 gene”. As to `O=C(Nc1ncc(-c2ccccc2Cl)s1)C1CC1` [N-[5-(2-chlorophenyl)(1,3-thiazol-2-yl)]cyclopropylcarboxamide], the “cellular expression of the ABCA-1 gene” value is reported as “elevate cellular expression of the ABCA-1 gene”. On to `O=C(Nc1ncc(-c2ccc(F)cc2)s1)c1ccco1` [N-[5-(4-fluorophenyl)(1,3-thiazol-2-yl)]-2-furylcarboxamide], for which the “cellular expression of the ABCA-1 gene” value is listed as “elevate cellular expression of the ABCA-1 gene”. For `O=C(Nc1ncc(-c2ccc(F)cc2)s1)c1cccs1` [N-[5-(4-fluorophenyl)(1,3-thiazol-2-yl)]-2-thienylcarboxamide], the “cellular expression of the ABCA-1 gene” value is recorded as “elevate cellular expression of the ABCA-1 gene”. For the compound `CC(C)(C)c1cc(NC(=O)C(C)(C)S(=O)(=O)c2ccc(C(F)(F)F)cc2)no1` [N-[5-(tert-butyl)isoxazol-3-yl]-2-methyl-2-{[4-(trifluoromethyl)phenyl]sulfonyl}-propanamide], the “cellular expression of the ABCA-1 gene” value is “elevate cellular expression of the ABCA-1 gene”.

Regarding `CS(=O)(=O)c1ccc2nc(NC(=O)c3cccs3)sc2c1` [N-[6-(methylsulfonyl)benzothiazol-2-yl]-2-thienylcarboxamide], the “cellular expression of the ABCA-1 gene” value was “elevate cellular expression of the ABCA-1 gene”. Next, `CCc1c(C(=O)NC23CC4CC(CC(C4)C2)C3)cnn1-c1nc(-c2ccc(C)cc2)cs1` [N-adamantanyl {5-ethyl-1-[4-(4-methylphenyl)(1,3-thiazol-2-yl)]pyrazol-4-yl}carboxamide]: “elevate cellular expression of the ABCA-1 gene”. On to `O=C(Nc1nc2ccccc2s1)c1sc2ccccc2c1Cl` [N-benzothiazol-2-yl(3-chlorobenzo[b]thiophen-2-yl)carboxamide], for which the “cellular expression of the ABCA-1 gene” value is given as “elevate cellular expression of the ABCA-1 gene”. To `N#Cc1cccc(C(=O)Nc2nc3ccccc3s2)c1` [N-benzothiazol-2-yl(3-cyanophenyl)carboxamide] belongs “elevate cellular expression of the ABCA-1 gene”; to `O=C(Nc1nc2ccccc2s1)c1cccc(F)c1` [N-benzothiazol-2-yl(3-fluorophenyl)carboxamide], “elevate cellular expression of the ABCA-1 gene”; to `N#Cc1ccc(C(=O)Nc2nc3ccccc3s2)cc1` [N-benzothiazol-2-yl(4-cyanophenyl)carboxamide], “elevate cellular expression of the ABCA-1 gene”. As for `CCCCNC(=O)Nc1nc2ccccc2s1` [N-benzothiazol-2-yl(butylamino)carboxamide], the “cellular expression of the ABCA-1 gene” value was “elevate cellular expression of the ABCA-1 gene”.

Regarding `CCCNC(=O)Nc1nc2ccccc2s1` [N-benzothiazol-2-yl(propylamino)carboxamide], the “cellular expression of the ABCA-1 gene” value is “elevate cellular expression of the ABCA-1 gene”. Regarding `CC(C)(C)NC(=O)Nc1nc2ccccc2s1` [N-benzothiazol-2-yl(tert-butylamino)carboxamide], the “cellular expression of the ABCA-1 gene” value is reported as “elevate cellular expression of the ABCA-1 gene”. On to `O=C(Cc1cccs1)Nc1nc2ccccc2s1` [N-benzothiazol-2-yl-2-(2-thienyl)acetamide], for which the “cellular expression of the ABCA-1 gene” value is listed as “elevate cellular expression of the ABCA-1 gene”. To `N#Cc1c(C(F)(F)F)cc(-c2cccs2)nc1SCC(=O)Nc1nc2ccccc2s1` [N-benzothiazol-2-yl-2-[3-cyano-6-(2-thienyl)-4-(trifluoromethyl)(2-pyridylthio)]acetamide] belongs “elevate cellular expression of the ABCA-1 gene”; to `O=C(Nc1nc2ccccc2s1)c1ccco1` [N-benzothiazol-2-yl-2-furylcarboxamide], “elevate cellular expression of the ABCA-1 gene”. Next, `O=C(Nc1nc2ccccc2s1)c1ccccn1` [N-benzothiazol-2-yl-2-pyridylcarboxamide]: “elevate cellular expression of the ABCA-1 gene”. Take `O=C(Nc1nc2ccccc2s1)c1cccs1` [N-benzothiazol-2-yl-2-thienylcarboxamide]: the “cellular expression of the ABCA-1 gene” value is listed as “elevate cellular expression of the ABCA-1 gene”. Next, `O=C(CCC1CCCC1)Nc1nc2ccccc2s1` [N-benzothiazol-2-yl-3-cyclopentylpropanamide]: “elevate cellular expression of the ABCA-1 gene”; `O=C(Nc1nc2ccccc2s1)c1ccncc1` [N-benzothiazol-2-yl-4-pyridylcarboxamide]: “elevate cellular expression of the ABCA-1 gene”; `O=C(Nc1nc2ccccc2s1)c1cnn(-c2ccc(Cl)cc2)c1C(F)(F)F` [N-benzothiazol-2-yl[1-(4-chlorophenyl)-5-(trifluoromethyl)pyrazol-4-yl]carboxamide]: “elevate cellular expression of the ABCA-1 gene”. As for `CCCc1c(C(=O)Nc2nc3ccccc3s2)cnn1-c1ccc(Cl)cc1` [N-benzothiazol-2-yl[1-(4-chlorophenyl)-5-propylpyrazol-4-yl]carboxamide], the “cellular expression of the ABCA-1 gene” value is listed as “elevate cellular expression of the ABCA-1 gene”.

`O=C(Nc1nc2ccccc2s1)c1cnn(Cc2ccccc2)c1` [N-benzothiazol-2-yl[1-benzylpyrazol-4-yl]carboxamide]: the “cellular expression of the ABCA-1 gene” value is “elevate cellular expression of the ABCA-1 gene”. With `O=C(Nc1nc2ccccc2s1)c1cnn(-c2ccccc2)c1C(F)(F)F` [N-benzothiazol-2-yl[1-phenyl-5-(trifluoromethyl)pyrazol-4-yl]carboxamide], the “cellular expression of the ABCA-1 gene” value is “elevate cellular expression of the ABCA-1 gene”. Next, `O=C(Nc1nc2ccccc2s1)c1cc(C(F)(F)F)cc(C(F)(F)F)c1` [N-benzothiazol-2-yl[3,5-bis(trifluoromethyl)phenyl]carboxamide]: “elevate cellular expression of the ABCA-1 gene”; `Cc1onc(-c2ccccc2Cl)c1C(=O)Nc1nc2ccccc2s1` [N-benzothiazol-2-yl[3-(2-chlorophenyl)-5-methylisoxazol-4-yl]carboxamide]: “elevate cellular expression of the ABCA-1 gene”; `Cc1onc(-c2c(F)cccc2Cl)c1C(=O)Nc1nc2ccccc2s1` [N-benzothiazol-2-yl[3-(6-chloro-2-fluorophenyl)-5-methylisoxazol-4-yl]carboxamide]: “elevate cellular expression of the ABCA-1 gene”. Consider `O=C(Nc1cccc(Cl)c1)Nc1nc2ccccc2s1` [N-benzothiazol-2-yl[(3-chlorophenyl)amino]carboxamide], for which the “cellular expression of the ABCA-1 gene” value is “elevate cellular expression of the ABCA-1 gene”. For the compound `O=C(Nc1nc2ccccc2s1)C1CCC1` [N-benzothiazol-2-ylcyclobutylcarboxamide], the “cellular expression of the ABCA-1 gene” value was “elevate cellular expression of the ABCA-1 gene”.

Turning to `O=C(Nc1nc2ccccc2s1)c1ccno1` [N-benzothiazol-2-ylisoxazol-5-ylcarboxamide], the “cellular expression of the ABCA-1 gene” value is listed as “elevate cellular expression of the ABCA-1 gene”.
